Data from patent US6566084B1, “Catalytic antibodies against cocaine and methods of using and producing same” (priority 1992, dated 2003).

Experiments:
[1] = equine BChE, ph7.4, published sources; cited from earlier work
[2] = in vivo; cited from earlier work
[3] = Spontaneous hydrolysis of the methyl ester of cocaine to benzoyl ecgonine (HPLC); conditions: buffer, pH 7
[4] = test system: mAb 3B9; assay: Inhibition of 3B9-catalyzed cocaine hydrolysis; assay type: biochemical, BALB/c mice; conditions: 1 mM
[5] = test system: mAb 6A12; assay: Inhibition of 6A12-catalyzed cocaine hydrolysis; conditions: 1 mM

In the case of “BChE: equine butyrylcholinesterase, the principal cocaine esterase in serum”, the Kcat [1] is given as 0.02 s⁻¹ and the Km [1] is given as 38 µM.

In the case of `COC(=O)[C@H]1[C@@H](OC(=O)c2ccccc2)C[C@@H]2CC[C@H]1N2C` [cocaine], the “dose excreted unchanged in the urine” value [2] is given as under 10% and the half-life [3] is given as 20 h.

In the case of `CNC(=O)Oc1ccc2c(c1)[C@]1(C)CCN(C)[C@@H]1N2C` [eserine], the “effect of serum esterase inhibitor on enzyme” value [4] is reported as “unaffected” and the “effect of serum esterase inhibitor on enzyme” value [5] is reported as “unaffected”.
